Reference: US20230381157A1, “RIFABUTIN FOR THE TREATMENT OF ACINETOBACTER BAUMANNII” (University of Southern California, priority 2018, published 2023)
In brackets after ≈: the same amount, converted by molar mass. Several values for one entry are separate records, joined by “and”; a condition that tells them apart may be missing. Equal entries are not always repeated. Entries after “also recorded” stand apart in the source; their conditions may differ. Where two headings read alike, the source gives them in different places.

Tests used:
[1] = tested on: GFP expressing reporter strain of A. baumannii HUMC1; type: cell-based, Acinetobacter baumannii; conditions: addition of amino acids to RPMI vs RPMI alone; 6 hours
A. baumannii HUMC1 [2] = assay: IC50 dose response, inhibition of bacterial growth (BacTiter-Glo viability); type: cell-based, Acinetobacter baumannii; conditions: Acinetobacter baumannii, 11-point dose response
A. baumannii HUMC1 [3] = type: in vivo, mouse
S. aureus LAC [4] = type: cell-based, Staphylococcus aureus; conditions: TSA
A. baumannii HUMC1 [5] = assay: MIC, broth microdilution in MHII, RPMI or modified media; type: cell-based, Acinetobacter baumannii; conditions: for Rifabutin MIC: clinical isolate HUMC1
HepG2 = conditions: top screen hits; IC50 against A. baumannii HUMC1 in 50% serum
[6] = Murine neuropenic lung infection model; type: in vivo, mouse
HEK293T = assay: Specificity: mammalian cell cytotoxicity / inhibition of bacteria growth (CC50/IC50)
S. aureus LAC [7] = assay: microbe, parasite or virus in culture; type: cell-based; conditions: Staphylococcus aureus
A. baumannii LAC-4 = type: in vivo, mouse; conditions: C3H mice, 10 mg/kg/daily or 1 mg/kg for 3 days, listed as RBT
E. coli = assay: MIC, broth microdilution; type: cell-based; conditions: Escherichia coli

Compound: CO[C@H]1/C=C/O[C@@]2(C)Oc3c(C)c(O)c4c(c3C2=O)C2=NC3(CCN(CC(C)C)CC3)NC2=C(NC(=O)/C(C)=C\C=C\[C@H](C)[C@H](O)[C@@H](C)[C@@H](O)[C@@H](C)[C@H](OC(C)=O)[C@@H]1C)C4=O [rifabutin]
- inhibition of GFP fluorescence [1]: less inhibition of GFP fluorescence
- IC50 (A. baumannii HUMC1 [2]; HUMC1, 24 h, HUMC1, RPMI + 50% Serum): < 0.847 nM
- IC50 (A. baumannii HUMC1 [2]; HUMC1, HUMC1, RPMI + 50% Serum): < 0.847 nM
- IC50 (A. baumannii HUMC1 [2]; HUMC1, HUMC1, RPMI): 1 nM
- survival (A. baumannii HUMC1 [3]; IV infection, 10 mg/kg/day for 3 days, oral gavage, 10 mg/kg/day): improved survival
- CFUs in blood (A. baumannii HUMC1 [3]; IV infection, 10 mg/kg/day for 3 days, oral gavage, at 1 hr): significantly lower CFUs in the blood
- CFUs in blood (A. baumannii HUMC1 [3]; IV infection, 10 mg/kg/day for 3 days, oral gavage, at 24 hrs, 10 mg/kg/day): significantly lower CFUs in the lung
- CFUs in blood (A. baumannii HUMC1 [3]; IV infection, 10 mg/kg/day for 3 days, oral gavage, at 24 hrs, listed as RBT, 10 mg/kg/day): significantly lower CFUs in the blood; also recorded: significantly reduced CFUs
- survival (A. baumannii HUMC1 [3]; IV infection, 10 mg/kg/day for 3 days, oral gavage, listed as RBT, 10 mg/kg/day): significant improvement in survival; also recorded: significantly improved survival
- fully protective at fold lower dose than RIF (A. baumannii HUMC1 [3]; IV infection, RBT 0.1 or 0.3, RIF 10 or 30 mg/kg/daily for 3 days, printed 100X / 100×): 100
- survival (A. baumannii HUMC1 [3]; bacteremia model, 10 mg/kg for 3 days, 2 days post infection, PBS/control 0%): about 100%
- protection (A. baumannii HUMC1 [3]; murine bacteremia, 0.1 mg/kg): fully protective
- Mutation Frequency (S. aureus LAC [4]): 1.10E−07
- MIC (A. baumannii HUMC1 [5]; Acinetobacter baumannii, HUMC1, HUMC1, 5 × RPMI): < 0.0625 µg/mL
- MIC (A. baumannii HUMC1 [5]; Acinetobacter baumannii, HUMC1, HUMC1, 10-30 kDa MHII Fraction spiked into RPMI): 8 µg/mL (≈ 9.44 µM)
- MIC (A. baumannii HUMC1 [5]; Acinetobacter baumannii, HUMC1, HUMC1, 25° C., MHII): 4 µg/mL (≈ 4.72 µM)
- MIC (A. baumannii HUMC1 [5]; Acinetobacter baumannii, HUMC1, HUMC1, 25° C., RPMI): < 0.06 µg/mL
- MIC (A. baumannii HUMC1 [5]; Acinetobacter baumannii, HUMC1, HUMC1, <10 kDa MHII Fraction spiked into RPMI): 8 µg/mL (≈ 9.44 µM)
- MIC (A. baumannii HUMC1 [5]; Acinetobacter baumannii, HUMC1, HUMC1, Low Salt Luria Broth): 2 µg/mL
- MIC (A. baumannii HUMC1 [5]; Acinetobacter baumannii, HUMC1, HUMC1, Luria Broth): 1 µg/mL (≈ 1.18 µM)
- MIC (A. baumannii HUMC1 [5]; Acinetobacter baumannii, HUMC1, HUMC1, M9): < 0.05 µg/mL
- MIC (A. baumannii HUMC1 [5]; Acinetobacter baumannii, HUMC1, HUMC1, MHII (CAMHB)): 4 µg/mL (≈ 4.72 µM)
- MIC (A. baumannii HUMC1 [5]; Acinetobacter baumannii, HUMC1, HUMC1, MHII + 200 mg/L glucose): 2 µg/mL
- MIC (A. baumannii HUMC1 [5]; Acinetobacter baumannii, HUMC1, HUMC1, MHII + 2,000 mg/L glucose): 2 µg/mL
- MIC (A. baumannii HUMC1 [5]; Acinetobacter baumannii, HUMC1, HUMC1, MHII + Non-Essential Amino Acid Solution (100×)): 3.12 µg/mL
- MIC (A. baumannii HUMC1 [5]; Acinetobacter baumannii, HUMC1, HUMC1, No Salt Luria Broth): 1 µg/mL
- MIC (A. baumannii HUMC1 [5]; Acinetobacter baumannii, HUMC1, HUMC1, Non tissue culture treated 96-well plates): 1.56 µg/mL (≈ 1.84 µM)
- MIC (A. baumannii HUMC1 [5]; Acinetobacter baumannii, HUMC1, HUMC1, RPMI + CCCP (2 μg/mL) + Essential Amino Acids): 1.56 µg/mL
- MIC (A. baumannii HUMC1 [5]; Acinetobacter baumannii, HUMC1, HUMC1, RPMI + Essential Amino Acid Solution (50×)): 1.56 µg/mL
- MIC (A. baumannii HUMC1 [5]; Acinetobacter baumannii, HUMC1, HUMC1, RPMI + Glutamic Acid 0.5 mM): < 0.048 µg/mL
- MIC (A. baumannii HUMC1 [5]; Acinetobacter baumannii, HUMC1, HUMC1, RPMI + Glycine 0.5 mM): < 0.048 µg/mL
- MIC (A. baumannii HUMC1 [5]; Acinetobacter baumannii, HUMC1, HUMC1, RPMI + L-Arginine 0.5 mM): < 0.048 µg/mL
- MIC (A. baumannii HUMC1 [5]; Acinetobacter baumannii, HUMC1, HUMC1, RPMI + L-Histidine 0.5 mM): 1.56 µg/mL
- MIC (A. baumannii HUMC1 [5]; Acinetobacter baumannii, HUMC1, HUMC1, RPMI + L-Tryptophan 0.125 mM): 1.56 µg/mL
- MIC (A. baumannii HUMC1 [5]; Acinetobacter baumannii, HUMC1, HUMC1, RPMI + Leucine 1 mM): < 0.048 µg/mL
- MIC (A. baumannii HUMC1 [5]; Acinetobacter baumannii, HUMC1, HUMC1, RPMI + Non-Essential Amino Acid Solution (100×)): 0.781 µg/mL
- MIC (A. baumannii HUMC1 [5]; Acinetobacter baumannii, HUMC1, HUMC1, RPMI + Organic Layer, Proteinase K Digested): 4 µg/mL
- MIC (A. baumannii HUMC1 [5]; Acinetobacter baumannii, HUMC1, HUMC1, RPMI + Organic layer, Sodium Periodate Treated): 4 µg/mL
- MIC (A. baumannii HUMC1 [5]; Acinetobacter baumannii, HUMC1, HUMC1, RPMI + acetonitrile treated <10 kDa MHII fraction, Aqueous Layer): < 0.0312 µg/mL
- MIC (A. baumannii HUMC1 [5]; Acinetobacter baumannii, HUMC1, HUMC1, RPMI + acetonitrile treated <10 kDa MHII fraction, Organic Layer): 4 µg/mL
- MIC (A. baumannii HUMC1 [5]; Acinetobacter baumannii, HUMC1, HUMC1, RPMI + efflux pump inhibitor CCCP (2 μg/mL)): < 0.05 µg/mL
- MIC (A. baumannii HUMC1 [5]; Acinetobacter baumannii, HUMC1, HUMC1, RPMI + efflux pump inhibitor thioridazine (16 μg/mL)): 12.5 µg/mL
- MIC (A. baumannii HUMC1 [5]; Acinetobacter baumannii, HUMC1, HUMC1, RPMI Supplemented with MHII (hybrid media, equal parts)): 8 µg/mL (≈ 9.44 µM)
- MIC (A. baumannii HUMC1 [5]; Acinetobacter baumannii, HUMC1, HUMC1, Tissue culture treated 96-well plates): 1.56 µg/mL (≈ 1.84 µM)
- MIC (A. baumannii HUMC1 [5]; HUMC1, 5 × RPMI, listed as RBT): 0.06 µg/mL (≈ 0.0708 µM)
- MIC (A. baumannii HUMC1 [5]; HUMC1, 10-30 kDa MHII Fraction spiked into RPMI, listed as RBT): 8.00 µg/mL (≈ 9.44 µM)
- difference in MICs at lower temperature (A. baumannii HUMC1 [5]; HUMC1, 25° C. or 30° C. compared to 37° C., MHII or RPMI): did not observe any difference
- MIC (A. baumannii HUMC1 [5]; HUMC1, 25° C., MHII, listed as RBT): 4.00 µg/mL (≈ 4.72 µM)
- MIC (A. baumannii HUMC1 [5]; HUMC1, 25° C., RPMI, listed as RBT): 0.05 µg/mL (≈ 0.059 µM)
- MIC (A. baumannii HUMC1 [5]; HUMC1, <10 kDa MHII Fraction spiked into RPMI, listed as RBT): 8 µg/mL and 8.00 µg/mL
- effect of added iron on MIC (A. baumannii HUMC1 [5]; HUMC1, FeCl3 spiked into RPMI at 0.01, 0.10, and 0.30 μg/mL): did not have any effect
- MIC (A. baumannii HUMC1 [5]; HUMC1, MHII (CAMHB in b45)): 3.125 µg/mL (≈ 3.69 µM)
- MIC (A. baumannii HUMC1 [5]; HUMC1, MHII (CAMHB in b45), listed as Rifabutin): 3.125 µg/mL and 6.25 µg/mL
- MIC (A. baumannii HUMC1 [5]; HUMC1, MHII (CAMHB), listed as RBT): 4.00 µg/mL and 6.25 µg/mL
- MIC (A. baumannii HUMC1 [5]; HUMC1, RPMI): 0.0156 µg/mL (≈ 0.0184 µM)
- MIC (A. baumannii HUMC1 [5]; HUMC1, RPMI + Glutamic Acid 0.5 mM, listed as RBT): 0.05 µg/mL
- MIC (A. baumannii HUMC1 [5]; HUMC1, RPMI + Glycine 0.5 mM, listed as RBT): 0.05 µg/mL
- MIC (A. baumannii HUMC1 [5]; HUMC1, RPMI + L-Arginine 0.5 mM, listed as RBT): 0.05 µg/mL
- MIC (A. baumannii HUMC1 [5]; HUMC1, RPMI + Leucine 1 mM, listed as RBT): 0.05 µg/mL
- MIC (A. baumannii HUMC1 [5]; HUMC1, RPMI + Non-Essential Amino Acid Solution (100×), listed as RBT): 0.78 µg/mL
- MIC (A. baumannii HUMC1 [5]; HUMC1, RPMI + Organic Layer, Proteinase K Digested, listed as RBT): 4.00 µg/mL
- MIC (A. baumannii HUMC1 [5]; HUMC1, RPMI + Organic layer, Sodium Periodate Treated, listed as RBT): 4.00 µg/mL
- MIC (A. baumannii HUMC1 [5]; HUMC1, RPMI + acetonitrile treated <10 kDa MHII fraction, Aqueous Layer, listed as RBT): 0.03 µg/mL
- MIC (A. baumannii HUMC1 [5]; HUMC1, RPMI + acetonitrile treated <10 kDa MHII fraction, Organic Layer, listed as RBT): 4.00 µg/mL
- MIC (A. baumannii HUMC1 [5]; HUMC1, RPMI + efflux pump inhibitor CCCP (2 μg/mL), listed as RBT): 0.05 µg/mL
- MIC (A. baumannii HUMC1 [5]; HUMC1, RPMI Supplemented with MHII (hybrid media, equal parts)): 8 µg/mL (≈ 9.44 µM)
- MIC (A. baumannii HUMC1 [5]; HUMC1, RPMI Supplemented with MHII (hybrid media, equal parts), listed as RBT): 8.00 µg/mL (≈ 9.44 µM)
- fold lower MIC of RBT as compared to RIF (A. baumannii HUMC1 [5]; HUMC1, RPMI, listed as RBT): 133 fold and 200 fold
- Rifabutin MIC (A. baumannii HUMC1 [5]; MHII): 3.12 µg/mL
- Rifabutin MIC (A. baumannii HUMC1 [5]; RPMI): 0.0156 µg/mL
- Specificity HepG2 (CC50/IC50) (HepG2): 148.31
- efficacy vs RIF [6]: more effective as compared to RIF
- Specificity HEK293T (CC50/IC50) (HEK293T; IC50 vs A. baumannii ATCC 17978, RPMI + 50% serum): 506006.298
- Specificity HEK293T (CC50/IC50) (HEK293T; IC50 vs A. baumannii ATCC 17978, RPMI alone): 1961.478
- Specificity HEK293T (CC50/IC50) (HEK293T; IC50 vs A. baumannii HUMC1, RPMI + 50% serum): 97331.320
- Specificity HEK293T (CC50/IC50) (HEK293T; IC50 vs A. baumannii HUMC1, RPMI alone): 33559.242
- Specificity HEK293T (CC50/IC50) (HEK293T; top screen hits, IC50 against A. baumannii HUMC1 in 50% serum): 148.31
- MIC (S. aureus LAC [7]; MHII): 0.012 µg/mL (≈ 0.0142 µM)
- MIC (S. aureus LAC [7]; RPMI): 0.025 µg/mL (≈ 0.0295 µM)
- efficacy RBT vs RIF (A. baumannii LAC-4): no difference in efficacy
- MIC (E. coli; E. coli DH5a, MHII): 6.25 µg/mL (≈ 7.38 µM)
- MIC (E. coli; E. coli JJ1886, MHII): 6.25 µg/mL (≈ 7.38 µM)
- MIC (E. coli; E. coli JJ1886, RPMI): 6.25 µg/mL (≈ 7.38 µM)
